{"source": "patent US8536190B2", "about": "“Treating unwanted ocular conditions using an ascomycin macrolactam” (Allergan, Inc., priority 2007, dated 2013)", "type_in_all_cases": "in vivo, human", "key": {"[1]": {"assay": "Preventative treatment of ocular conditions during weekly docetaxel treatments", "settings": "person, medication containing 1.0% pimecrolimus during the entire course of docetaxel treatments", "excerpt": "A person is diagnosed with metastatic breast cancer. Their physician decides that the best course of cancer therapy includes weekly docetaxel treatments. In order to reduce or prevent the occurrence of unwanted ocular conditions as a result of the docetaxel treatments, the physician also prescribes a medication containing 1.0% pimecrolimus to be administered during the entire course of docetaxel treatments."}, "[2]": {"assay": "Treatment of epiphora (canalicular stenosis) after docetaxel chemotherapy", "settings": "person, docetaxel every three weeks, medication containing 0.03%, after one week of daily treatment", "excerpt": "A physician diagnosis a person complaining of excessive tearing with epiphora. The physician determines that the cause of this excessive tearing was canalicular stenosis, and believes that this ocular condition was brought on by the person's prostate cancer therapy, which included docetaxel treatments every three weeks. The patient receives a medication containing 0.03% […]."}, "[3]": {"assay": "Treatment of epiphora (punctal stenosis) in a patient undergoing docetaxel treatments", "settings": "person, docetaxel every three weeks, medication containing 0.1% tacrolimus, after one week of daily treatment", "excerpt": "A person undergoing docetaxel treatments every three weeks as part of their breast cancer therapy developed epiphora during the seventh week. […] The patient receives a medication containing 0.1% tacrolimus."}}, "data": [{"compound": "CC[C@@H]1/C=C(\\C)C[C@H](C)C[C@H](OC)[C@H]2O[C@@](O)(C(=O)C(=O)N3CCCC[C@H]3C(=O)O[C@H](/C(C)=C/[C@@H]3CC[C@H](Cl)[C@H](OC)C3)[C@H](C)[C@@H](O)CC1=O)[C@H](C)C[C@@H]2OC", "note": "[pimecrolimus, Pimecrolimus]", "values": [{"measurement": "occurrence of epiphora or symptoms of an ocular condition", "setting": "[1]", "result": "does not exhibit epiphora or show any symptoms of an ocular condition"}]}, {"compound": "Ascomycin [acromycin]", "values": [{"measurement": "excessive tearing (epiphora) after treatment", "setting": "[2]", "result": "the excessive tearing subsides"}]}, {"compound": "Tacrolimus", "values": [{"measurement": "excessive tearing (epiphora) after treatment", "setting": "[3]", "result": "the excessive tearing subsides"}]}]}
